Test results from patent publication US7662825B2, “N-pyrazinyl-phenylsulphonamides and their use in the treatment of chemokine mediated diseases” (AstraZeneca AB, priority 2002, dated 2010).

Row | Structure (SMILES) | melting point
1 | O=S(=O)(Nc1ncc(Br)nc1OCc1cccnc1)c1cccc(Cl)c1Cl [Example 34, N-[5-Bromo-3-(3-pyridinylmethoxy)-2-pyrazinyl]-2,3-dichlorobenzenesulphonamide] | 204 to 206 °C
2 | COc1nc(C)c(C)nc1NS(=O)(=O)c1cccc(Cl)c1Cl [Example 65, 2,3-Dichloro-N-(3-methoxy-5,6-dimethyl-2-pyrazinyl)benzenesulphonamide] | 165 to 166 °C
3 | O=S(=O)(Nc1ncc(Cl)nc1Cl)c1cccc(Cl)c1Cl [Example 74, 2,3-Dichloro-N-(3,5-dichloro-2-pyrazinyl)benzenesulphonamide] | 181 to 182 °C
4 | C#CCOc1nccnc1NS(=O)(=O)c1cccc(Cl)c1Cl [Example 189, 2,3-Dichloro-N-[3-(2-propynyloxy)-2-pyrazinyl)benzenesulphonamide] | 153 to 154 °C
5 | COc1ncc(C)nc1NS(=O)(=O)c1cccc(Cl)c1Cl [Example 194, 2,3-Dichloro-N-(3-methoxy-6-methyl-2-pyrazinyl)benzenesulphonamide] | 50 to 60 °C
6 | O=S(=O)(Nc1ncc(Cl)nc1OCc1cccc(CO)n1)c1cccc(Cl)c1Cl [Example 143, 2,3-Dichloro-N-[5-chloro-3-{[6-(hydroxymethyl)-2-pyridinyl]methoxy}-2-pyrazinyl]benzenesulphonamide] | 220 °C
7 | COc1nc(SCC(N)=O)cnc1NS(=O)(=O)c1cccc(Cl)c1Cl [Example 169, 2-[5-(2,3-Dichlorobenzenesulphonylamino)-6-methoxy-2-pyrazinylsulphanyl]acetamide] | 163 to 164 °C
8 | COc1ncc(Cl)nc1NS(=O)(=O)c1ccccc1Cl [Example 38, 2-Chloro-N-(6-chloro-3-methoxy-2-pyrazinyl)benezenesulphonamide] | 172 to 173 °C
9 | COc1nc(SCC(=O)O)cnc1NS(=O)(=O)c1cccc(Cl)c1Cl [Example 83, [5-(2,3-Dichlorobenzenesulphonylamino)-6-methoxy-2-pyrazinylsulphanyl]acetic acid] | 138 to 140 °C
10 | COCc1nc(OC)c(NS(=O)(=O)c2cccc(Cl)c2Cl)nc1Cl [Example 129, 2,3-Dichloro-N-[6-chloro-3-methoxy-5-(methoxymethyl)-2-pyrazinyl]benzenesulphonamide] | 193 to 196 °C
11 | COc1nc(NCCNC(C)=O)c(Cl)nc1NS(=O)(=O)c1cccc(Cl)c1Cl [Example 76, N-{2-[3-Chloro-5-(2,3-dichlorobenzenesulphonylamino)-6-methoxy-2-pyrazinylamino]ethyl}acetamide] | 150 to 152 °C
12 | CNc1nc(OC)c(NS(=O)(=O)c2cccc(Cl)c2Cl)nc1Cl [Example 79, 2,3-Dichloro-N-(6-chloro-3-methoxy-5-methylamino-2-pyrazinyl)benzenesulphonamide] | 185 to 186 °C
13 | CCOc1cnc(NS(=O)(=O)c2cccc(Cl)c2Cl)c(OC)n1 [Example 166, 2,3-Dichloro-N-(5-ethoxy-3-methoxy-2-pyrazinyl)benzenesulphonamide] | 96 to 97 °C
14 | COc1ncc(Cl)nc1NS(=O)(=O)c1ccc(Cl)cc1Cl [Example 41, N-(6-Chloro-3-methoxy-2-pyrazinyl)-2,4-dichlorobenezenesulphonamide] | 189 to 190 °C
15 | NC(=O)c1cnc(NS(=O)(=O)c2cccc(Cl)c2Cl)c(OCc2cccnc2)n1 [Example 135, 5-{[(2,3-Dichlorophenyl)sulphonyl]amino}-6-(3-pyridinylmethoxy)-2-pyrazinecarboxamide] | 174 to 178 °C
16 | COc1ncc(Cl)nc1NS(=O)(=O)c1ccc(Cl)cc1 [Example 40, 4-Chloro-N-(6-chloro-3-methoxy-2-pyrazinyl)benezenesulphonamide] | 174 to 175 °C
17 | COc1nc(CO)c(Cl)nc1NS(=O)(=O)c1cccc(Cl)c1Cl [Example 127, 2,3-Dichloro-N-[6-chloro-5-(hydroxymethyl)-3-methoxypyrazin-2-yl]benzenesulphonamide] | 145 to 147 °C
18 | COc1nc(Cl)c(Cl)nc1NS(=O)(=O)c1ccccc1Cl [Example 60, 2-Chloro-N-(5,6-dichloro-3-methoxy-2-pyrazinyl)benzenesulphonamide] | 217 to 218 °C
19 | COc1nc(Cl)cnc1NS(=O)(=O)c1ccc(Cl)cc1Cl [Example 54, N-(5-Chloro-3-methoxy-2-pyrazinyl)-2,4-dichlorobenzenesulphonamide] | 170 to 171 °C
20 | COc1nc(Cl)cnc1NS(=O)(=O)c1cccc(Cl)c1 [Example 52, 3-Chloro-N-(5-chloro-3-methoxy-2-pyrazinyl)benzenesulphonamide] | 129 to 130 °C
21 | COc1nc(NC(=O)CO)cnc1NS(=O)(=O)c1cccc(Cl)c1Cl [Example 200, N-[5-(2,3-Dichlorophenylsulphonylamino)-6-methoxy-2-pyrazinyl]-2-hydroxyacetamide] | 153 to 155 °C

Row | Structure (SMILES) | melting point
22 | O=S(=O)(Nc1ncc(Br)nc1OC[C@@H]1CCCN1)c1cccc(Cl)c1Cl [Example 133, N-[5-Bromo-3-[(2S)-2-pyrrolidinylmethoxy]-2-pyrazinyl]-2,3-dichlorobenzenesulphonamide] | 199 to 200 °C
23 | COc1nc(COc2cnccn2)cnc1NS(=O)(=O)c1cccc(Cl)c1Cl [Example 140, 2,3-Dichloro-N-{3-methoxy-5-[(pyrazinyloxy)methyl]-2-pyrazinyl}benzenesulphonamide] | 155 °C (dec.)
24 | O=S(=O)(Nc1ncc(Cl)nc1OCc1ccccn1)c1cccc(Cl)c1Cl [Example 89, 2,3-dichloro-N-[5-chloro-3-(2-pyridinylmethoxy)-2-pyrazinyl]benzenesulphonamide] | 147 to 148 °C
25 | Cc1cnc(NS(=O)(=O)c2cccc(Cl)c2Cl)c(OCc2ccco2)n1 [Example 20, 2,3-Dichloro-N-[3-(2-furanylmethoxy)-5-methyl-2-pyrazinyl]benzenesulphonamide] | 127 to 129 °C
26 | COc1nc(C)cnc1NS(=O)(=O)c1ccc(Cl)c(Cl)c1 [Example 48, 3,4-Dichloro-N-(3-methoxy-5-methyl-2-pyrazinyl)benezenesulphonamide] | 148 to 149 °C
27 | CN(C)Cc1ccc(COc2ncc(Cl)nc2NS(=O)(=O)c2cccc(Cl)c2Cl)o1 [Example 180, 2,3-Dichloro-N-[6-chloro-3-(5-dimethylaminomethyl-2-furanylmethoxy)-2-pyrazinyl]benzenesulphonamide] | 209 to 210 °C
28 | COc1nc(OCCN)cnc1NS(=O)(=O)c1cccc(Cl)c1Cl [Example 115, N-[5-(2-Aminoethoxy)-3-methoxy-2-pyrazinyl]-2,3-dichlorobenzenesulphonamide] | 200 to 205 °C
29 | O=S(=O)(Nc1nccnc1OCc1ccccn1)c1cccc(Cl)c1Cl [Example 28, 2,3-Dichloro-N-[3-(2-pyridinylmethoxy)-2-pyrazinyl]benzenesulphonamide] | 167 to 168 °C
30 | O=S(=O)(Nc1ncc(Cl)nc1OCc1cccc(CNCCO)c1)c1cccc(Cl)c1Cl [Example 108, 2,3-Dichloro-N-[5-chloro-3-{3-([2-hydroxyethylamino]methyl)phenylmethoxy}-2-pyrazinyl]benzenesulphonamide] | 196 to 198 °C
31 | COc1nc(SCCN(C)C)cnc1NS(=O)(=O)c1cccc(Cl)c1Cl [Example 205, 2,3-Dichloro-N-{5-[2-(dimethylamino)ethylsulphanyl]-3-methoxy-2-pyrazinyl]benzenesulphonamide] | 117 to 118 °C
32 | COc1nc(SCc2ccc(F)cc2)cnc1NS(=O)(=O)c1cccc(Cl)c1Cl [Example 170, 2,3-Dichloro-N-[5-(4-fluorobenzylsulphanyl)-3-methoxy-2-pyrazinyl]benzenesulphonamide] | 119 to 120 °C
33 | COCCOc1nc(OC)c(NS(=O)(=O)c2cccc(Cl)c2Cl)nc1Cl [Example 70, 2,3-Dichloro-N-[6-chloro-3-methoxy-5-(2-methoxyethoxy)-2-pyrazinyl]benzenesulphonamide] | 193 to 194 °C
34 | Cc1cccc(COc2nc(C)cnc2NS(=O)(=O)c2cccc(Cl)c2Cl)n1 [Example 23, 2,3-Dichloro-N-[5-methyl-3-(6-methyl-2-pyridinylmethoxy)-2-pyrazinyl]benzenesulphonamide] | 164 to 165 °C
35 | Nc1nc(COc2nc(Cl)cnc2NS(=O)(=O)c2cccc(Cl)c2Cl)co1 [Example 212, N-[3-[(2-amino-4-oxazolyl)methoxy]-5-chloro-2-pyrazinyl]-2,3-dichlorobenzenesulphonamide] | 137 °C
36 | CCCCOc1nc(Cl)cnc1NS(=O)(=O)c1cccc(Cl)c1Cl [Example 91, N-(3-Butoxy-5-chloro-2-pyrazinyl)-2,3-dichlorobenzenesulphonamide] | 133 to 134 °C
37 | CNCc1cccc(COc2nc(Cl)cnc2NS(=O)(=O)c2cccc(Cl)c2Cl)c1 [Example 107, 2,3-Dichloro-N-[5-chloro-3-(3-methylaminomethylphenylmethoxy)-2-pyrazinyl]benzenesulphonamide] | 167 to 168 °C
38 | COc1nc(C#N)cnc1NS(=O)(=O)c1cccc(Cl)c1Cl [Example 190, 2,3-Dichloro-N-(5-cyano-3-methoxy-2-pyrazinyl)benzenesulphonamide] | 239 to 240 °C
39 | COc1nc(SCC#N)cnc1NS(=O)(=O)c1cccc(Cl)c1Cl [Example 171, 2,3-Dichloro-N-[5-cyanomethylsulphanyl-3-methoxy-2-pyrazinyl]benzenesulphonamide] | 158 to 159 °C
40 | COc1nc(Cl)c(Cl)nc1NS(=O)(=O)c1cccc(Cl)c1 [Example 61, 3-Chloro-N-(5,6-dichloro-3-methoxy-2-pyrazinyl)benzenesulphonamide] | 171 to 172 °C
41 | O=S(=O)(Nc1ncc(Cl)nc1OCc1cccnc1)c1cccc(Cl)c1F [Example 96, 3-Chloro-N-[5-chloro-3-(3-pyridinylmethoxy)-2-pyrazinyl]-2-fluorobenzenesulphonamide] | 177 to 178 °C
42 | COc1ccc(COc2nccnc2NS(=O)(=O)c2cccc(Cl)c2Cl)cn1 [Example 128, 2,3-Dichloro-N-{3-[(6-methoxy-3-pyridinyl)methoxy]-2-pyrazinyl}benzenesulphonamide] | 187 to 188 °C
